System: not listed separately
Assay: AUC (0 to 24 hrs) in mouse at 20 mg/kg, po
Type: ADME, organism-based
Design: time < 24 hr, dose 20 mg/kg, route oral
Details: plasma

Question: For `COCCOc1ccccc1N1CCN(C(=O)C2(Oc3ccc(C(F)(F)F)cc3)CCCN(C(=O)c3cnccc3C(F)(F)F)C2)CC1.Cl` (single isomer, unassigned), which AUC(0-t) at 24 h is on record?
Answer: 1.1 µM·h

Target: T1, Cytochrome P450 2D6 (Homo sapiens, UniProt P10635)
Assay: Inhibition of CYP2D6 (unknown origin) compound preincubated with substrate
Type: ADME
Details: not given

T1 sequence (P10635 whole entry): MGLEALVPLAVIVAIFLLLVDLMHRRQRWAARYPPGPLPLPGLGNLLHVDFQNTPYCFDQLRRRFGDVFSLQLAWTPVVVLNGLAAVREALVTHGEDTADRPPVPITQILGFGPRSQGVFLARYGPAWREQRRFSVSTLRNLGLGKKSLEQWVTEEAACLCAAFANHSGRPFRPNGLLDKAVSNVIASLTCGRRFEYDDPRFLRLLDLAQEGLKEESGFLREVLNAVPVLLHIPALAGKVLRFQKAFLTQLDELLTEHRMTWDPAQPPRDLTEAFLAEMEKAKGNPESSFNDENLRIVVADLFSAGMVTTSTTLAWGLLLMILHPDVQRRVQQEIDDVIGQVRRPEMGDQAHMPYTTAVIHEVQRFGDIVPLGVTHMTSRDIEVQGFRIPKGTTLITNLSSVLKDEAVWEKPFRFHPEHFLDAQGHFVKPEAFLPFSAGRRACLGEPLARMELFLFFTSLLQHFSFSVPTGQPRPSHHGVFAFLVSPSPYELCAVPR

Question: For `COCCOc1ccccc1N1CCN(C(=O)C2(Oc3ccc(C(F)(F)F)cc3)CCCN(C(=O)c3cnccc3C(F)(F)F)C2)CC1.Cl` (single isomer, unassigned), which IC50 is on record?
Answer: > 30 µM

Target: T1, Cytochrome P450 2D6
Assay: Inhibition of CYP2D6 (unknown origin) compound co-incubated with substrate
Type: ADME
Details: not given

Question: For `COCCOc1ccccc1N1CCN(C(=O)C2(Oc3ccc(C(F)(F)F)cc3)CCCN(C(=O)c3cnccc3C(F)(F)F)C2)CC1.Cl` (single isomer, unassigned), which IC50 is on record?
Answer: > 30 µM

System: not listed separately
Assay: Tmax in mouse at 20 mg/kg, po
Type: ADME, organism-based
Design: dose 20 mg/kg, route oral
Details: in vivo

Question: With `COCCOc1ccccc1N1CCN(C(=O)C2(Oc3ccc(C(F)(F)F)cc3)CCCN(C(=O)c3cnccc3C(F)(F)F)C2)CC1.Cl` (single isomer, unassigned) as the molecule, how does the Tmax read?
Answer: 1 h

Target: T2, Cytochrome P450 2C9 (Homo sapiens, UniProt P11712)
Assay: Inhibition of CYP2C9 (unknown origin) compound co-incubated with substrate
Type: ADME
Details: not given

T2 sequence (P11712 whole entry): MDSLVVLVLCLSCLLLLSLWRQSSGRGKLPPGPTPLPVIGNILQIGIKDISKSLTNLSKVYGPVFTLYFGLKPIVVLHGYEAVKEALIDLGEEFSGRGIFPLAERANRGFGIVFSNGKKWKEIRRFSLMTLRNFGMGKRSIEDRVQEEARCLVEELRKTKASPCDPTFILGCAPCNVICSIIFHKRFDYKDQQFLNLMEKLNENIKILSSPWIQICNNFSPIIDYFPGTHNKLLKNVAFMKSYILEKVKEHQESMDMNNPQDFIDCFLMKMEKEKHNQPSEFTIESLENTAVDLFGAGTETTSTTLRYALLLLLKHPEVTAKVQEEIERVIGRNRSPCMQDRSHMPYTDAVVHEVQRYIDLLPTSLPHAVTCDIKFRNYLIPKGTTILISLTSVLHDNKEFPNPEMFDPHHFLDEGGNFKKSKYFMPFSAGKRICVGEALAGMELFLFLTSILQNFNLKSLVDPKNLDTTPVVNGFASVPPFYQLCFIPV

Question: For `COCCOc1ccccc1N1CCN(C(=O)C2(Oc3ccc(C(F)(F)F)cc3)CCCN(C(=O)c3cnccc3C(F)(F)F)C2)CC1.Cl` (single isomer, unassigned), which IC50 is on record?
Answer: > 30 µM

System: not listed separately
Assay: Oral bioavailability in mouse at 20 mg/kg
Type: ADME, organism-based
Details: in vivo

Question: Which bioavailability does the source give for `COCCOc1ccccc1N1CCN(C(=O)C2(Oc3ccc(C(F)(F)F)cc3)CCCN(C(=O)c3cnccc3C(F)(F)F)C2)CC1.Cl` (single isomer, unassigned) here?
Answer: 32%

System: not listed separately
Assay: AUC (0 to 24 hrs) in mouse at 20 mg/kg, iv
Type: ADME, organism-based
Design: time < 24 hr, dose 20 mg/kg, route intravenous
Details: plasma

Question: Which AUC(0-t) at 24 h does the source give for `COCCOc1ccccc1N1CCN(C(=O)C2(Oc3ccc(C(F)(F)F)cc3)CCCN(C(=O)c3cnccc3C(F)(F)F)C2)CC1.Cl` (single isomer, unassigned) here?
Answer: 3.4 µM·h

Target: Tumour suppressor p53/oncoprotein Mdm2 (Homo sapiens, UniProt Q00987)
Assay: Inhibition of human MDM2/p53 interaction by fluorescence polarization assay
Type: protein assay
Details: not given

Sequence of Tumour suppressor p53/oncoprotein Mdm2 (P04637 whole entry): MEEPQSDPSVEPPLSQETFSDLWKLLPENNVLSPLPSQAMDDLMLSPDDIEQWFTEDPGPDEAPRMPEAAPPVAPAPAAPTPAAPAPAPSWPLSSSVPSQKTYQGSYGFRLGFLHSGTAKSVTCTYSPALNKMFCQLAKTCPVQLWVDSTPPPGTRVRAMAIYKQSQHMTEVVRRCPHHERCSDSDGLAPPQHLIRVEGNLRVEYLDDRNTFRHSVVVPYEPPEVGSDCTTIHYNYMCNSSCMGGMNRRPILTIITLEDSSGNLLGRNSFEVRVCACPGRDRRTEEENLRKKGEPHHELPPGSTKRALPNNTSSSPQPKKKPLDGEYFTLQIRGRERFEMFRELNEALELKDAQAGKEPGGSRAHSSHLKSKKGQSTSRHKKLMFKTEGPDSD
Sequence of Tumour suppressor p53/oncoprotein Mdm2 (Q00987 whole entry): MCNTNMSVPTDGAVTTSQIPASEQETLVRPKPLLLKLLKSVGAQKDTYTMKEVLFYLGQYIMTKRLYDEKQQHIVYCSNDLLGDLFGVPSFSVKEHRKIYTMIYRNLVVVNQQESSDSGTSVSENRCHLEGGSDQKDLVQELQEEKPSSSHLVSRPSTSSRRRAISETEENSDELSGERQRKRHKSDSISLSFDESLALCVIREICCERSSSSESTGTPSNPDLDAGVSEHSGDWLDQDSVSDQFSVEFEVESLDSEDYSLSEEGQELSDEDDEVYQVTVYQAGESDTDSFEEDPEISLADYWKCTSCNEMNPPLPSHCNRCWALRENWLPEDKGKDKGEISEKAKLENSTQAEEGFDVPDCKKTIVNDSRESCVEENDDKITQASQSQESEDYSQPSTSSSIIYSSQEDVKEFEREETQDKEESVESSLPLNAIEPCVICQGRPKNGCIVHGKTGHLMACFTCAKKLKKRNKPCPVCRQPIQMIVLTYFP

Question: For `O=C(NCCc1ccccc1)C1(Oc2ccc(C(F)(F)F)cc2)CCCN(C(=O)C2(c3ccc(Cl)cc3)CC2)C1` (centres undefined), which IC50 is on record?
Answer: 1.4 µM

Question: Which IC50 does the source give for `O=C(c1cnccc1C(F)(F)F)N1CCCC(Oc2cccc(Cl)c2)(C(=O)N2CCN(c3ccccn3)CC2)C1` (centres undefined) here?
Answer: 5.2 µM

Question: For `O=C(c1cnccc1C(F)(F)F)N1CCCC(Oc2ccc(Cl)cc2)(C(=O)N2CCN(c3ccccn3)CC2)C1` (centres undefined), which IC50 is on record?
Answer: 6.7 µM

Question: With `O=C(c1cnccc1C(F)(F)F)N1CCCC(Oc2ccc(F)cc2)(C(=O)N2CCN(c3ccccn3)CC2)C1` (centres undefined) as the molecule, how does the IC50 read?
Answer: 6 µM

Question: For `O=C(c1cnccc1C(F)(F)F)N1CCCC(Oc2ccc(Br)cc2)(C(=O)N2CCN(c3ccccn3)CC2)C1` (centres undefined), which IC50 is on record?
Answer: 1.9 µM

Question: Which IC50 does the source give for `O=C(c1cnccc1C(F)(F)F)N1CCCC(Oc2ccc(Br)c(F)c2)(C(=O)N2CCN(c3ccccn3)CC2)C1` (centres undefined) here?
Answer: 2.9 µM

Question: For `O=C(c1cnccc1C(F)(F)F)N1CCCC(Oc2ccc(Cl)c(F)c2)(C(=O)N2CCN(c3ccccn3)CC2)C1` (centres undefined), which IC50 is on record?
Answer: 1.4 µM

Question: For `Cc1nc2cc(OC3(C(=O)N4CCN(c5ccccn5)CC4)CCCN(C(=O)c4cnccc4C(F)(F)F)C3)ccc2s1` (centres undefined), which IC50 is on record?
Answer: 41 µM

Question: Which IC50 does the source give for `O=C(c1cnccc1C(F)(F)F)N1CCCC(Oc2ccc(-c3ccccc3)cc2)(C(=O)N2CCN(c3ccccn3)CC2)C1` (centres undefined) here?
Answer: 48 µM

Question: With `COc1ccc(OC2(C(=O)N3CCN(c4ccccn4)CC3)CCCN(C(=O)c3cnccc3C(F)(F)F)C2)cc1` (centres undefined) as the molecule, how does the IC50 read?
Answer: 33 µM

Question: Which IC50 does the source give for `Cc1ccc(OC2(C(=O)N3CCN(c4ccccn4)CC3)CCCN(C(=O)c3cnccc3C(F)(F)F)C2)cc1` (centres undefined) here?
Answer: 1.5 µM

Question: With `O=C(c1cnccc1C(F)(F)F)N1CCCC(Oc2ccc(C(F)(F)F)cc2)(C(=O)N2CCN(c3ccccn3)CC2)C1` (centres undefined) as the molecule, how does the IC50 read?
Answer: 2.3 µM

Question: For `O=C(c1cnccc1C(F)(F)F)N1CCCC(Oc2ccc(C(F)(F)F)cc2)(C(=O)N2CCN(c3ccccc3)CC2)C1` (centres undefined), which IC50 is on record?
Answer: 2.8 µM

Question: Which IC50 does the source give for `O=C(c1cnccc1C(F)(F)F)N1CCCC(Oc2ccc(C(F)(F)F)cc2)(C(=O)N2CCN(c3ccncn3)CC2)C1` (centres undefined) here?
Answer: 18 µM

Question: For `O=C(c1cnccc1C(F)(F)F)N1CCCC(Oc2ccc(C(F)(F)F)cc2)(C(=O)N2CCN(c3ncccn3)CC2)C1` (centres undefined), which IC50 is on record?
Answer: 35 µM

Question: With `O=C(c1cnccc1C(F)(F)F)N1CCCC(Oc2ccc(C(F)(F)F)cc2)(C(=O)N2CCN(C3CCCCC3)CC2)C1` (centres undefined) as the molecule, how does the IC50 read?
Answer: 4.2 µM

Question: Which IC50 does the source give for `CC(=O)N1CCN(C(=O)C2(Oc3ccc(C(F)(F)F)cc3)CCCN(C(=O)c3cnccc3C(F)(F)F)C2)CC1` (centres undefined) here?
Answer: 36 µM

Question: For `CN1CCN(C(=O)C2(Oc3ccc(C(F)(F)F)cc3)CCCN(C(=O)c3cnccc3C(F)(F)F)C2)CC1` (centres undefined), which IC50 is on record?
Answer: 12 µM

Question: For `O=C(c1cnccc1C(F)(F)F)N1CCCC(Oc2ccc(C(F)(F)F)cc2)(C(=O)N2CCN(Cc3ccccc3)CC2)C1` (centres undefined), which IC50 is on record?
Answer: 39 µM

Question: Which IC50 does the source give for `O=C(c1cnccc1C(F)(F)F)N1CCCC(Oc2ccc(C(F)(F)F)cc2)(C(=O)N2CC=C(c3ccccc3)CC2)C1` (centres undefined) here?
Answer: 1.4 µM

Question: For `O=C(c1cnccc1C(F)(F)F)N1CCCC(Oc2ccc(C(F)(F)F)cc2)(C(=O)N2CCC(c3ccccn3)C2)C1` (centres undefined), which IC50 is on record?
Answer: 3.7 µM

Question: For `O=C(c1cnccc1C(F)(F)F)N1CCCC(Oc2ccc(C(F)(F)F)cc2)(C(=O)N2CCc3ccccc3C2)C1` (centres undefined), which IC50 is on record?
Answer: 1.4 µM

Question: For `O=C(c1cnccc1C(F)(F)F)N1CCCC(Oc2ccc(C(F)(F)F)cc2)(C(=O)NCc2ccc(Cl)cc2)C1` (centres undefined), which IC50 is on record?
Answer: 1.5 µM

Question: With `O=C(c1cnccc1C(F)(F)F)N1CCCC(Oc2ccc(C(F)(F)F)cc2)(C(=O)NCCc2ccccc2)C1` (centres undefined) as the molecule, how does the IC50 read?
Answer: 3.5 µM

Question: For `COc1cccc(N2CCN(C(=O)C3(Oc4ccc(C(F)(F)F)cc4)CCCN(C(=O)c4cnccc4C(F)(F)F)C3)CC2)c1` (centres undefined), which IC50 is on record?
Answer: > 50 µM

Question: With `COc1ccc(N2CCN(C(=O)C3(Oc4ccc(C(F)(F)F)cc4)CCCN(C(=O)c4cnccc4C(F)(F)F)C3)CC2)cc1` (centres undefined) as the molecule, how does the IC50 read?
Answer: 23 µM

Question: Which IC50 does the source give for `O=C(c1cnccc1C(F)(F)F)N1CCCC(Oc2ccc(C(F)(F)F)cc2)(C(=O)N2CCN(c3ccccc3O)CC2)C1` (centres undefined) here?
Answer: 0.97 µM

Question: Which IC50 does the source give for `CCOc1ccccc1N1CCN(C(=O)C2(Oc3ccc(C(F)(F)F)cc3)CCCN(C(=O)c3cnccc3C(F)(F)F)C2)CC1` (centres undefined) here?
Answer: 0.59 µM

Question: Which IC50 does the source give for `CC(=O)Nc1ccccc1N1CCN(C(=O)C2(Oc3ccc(C(F)(F)F)cc3)CCCN(C(=O)c3cnccc3C(F)(F)F)C2)CC1` (centres undefined) here?
Answer: 0.38 µM

Question: Which IC50 does the source give for `CCC(=O)Nc1ccccc1N1CCN(C(=O)C2(Oc3ccc(C(F)(F)F)cc3)CCCN(C(=O)c3cnccc3C(F)(F)F)C2)CC1` (centres undefined) here?
Answer: 0.37 µM

Question: Which IC50 does the source give for `COCC(=O)Nc1ccccc1N1CCN(C(=O)C2(Oc3ccc(C(F)(F)F)cc3)CCCN(C(=O)c3cnccc3C(F)(F)F)C2)CC1` (centres undefined) here?
Answer: 0.54 µM

Question: For `CN(C)CC(=O)Nc1ccccc1N1CCN(C(=O)C2(Oc3ccc(C(F)(F)F)cc3)CCCN(C(=O)c3cnccc3C(F)(F)F)C2)CC1` (centres undefined), which IC50 is on record?
Answer: 0.67 µM

Question: With `CN(C)CCC(=O)Nc1ccccc1N1CCN(C(=O)C2(Oc3ccc(C(F)(F)F)cc3)CCCN(C(=O)c3cnccc3C(F)(F)F)C2)CC1` (centres undefined) as the molecule, how does the IC50 read?
Answer: 0.59 µM

Question: For `CN(C)CCCC(=O)Nc1ccccc1N1CCN(C(=O)C2(Oc3ccc(C(F)(F)F)cc3)CCCN(C(=O)c3cnccc3C(F)(F)F)C2)CC1` (centres undefined), which IC50 is on record?
Answer: 1.08 µM

Question: Which IC50 does the source give for `Cc1cc(CC(=O)Nc2ccccc2N2CCN(C(=O)C3(Oc4ccc(C(F)(F)F)cc4)CCCN(C(=O)c4cnccc4C(F)(F)F)C3)CC2)on1` (centres undefined) here?
Answer: 0.63 µM

Question: Which IC50 does the source give for `O=C(CC1NC(=O)NC1=O)Nc1ccccc1N1CCN(C(=O)C2(Oc3ccc(C(F)(F)F)cc3)CCCN(C(=O)c3cnccc3C(F)(F)F)C2)CC1` (centres undefined) here?
Answer: 0.27 µM

Question: With `O=C(c1ccccc1C(F)(F)F)N1CCCC(Oc2ccc(C(F)(F)F)cc2)(C(=O)N2CCN(c3ccccn3)CC2)C1` (centres undefined) as the molecule, how does the IC50 read?
Answer: 6.5 µM

Question: For `O=C(N1CCN(c2ccccn2)CC1)C1(Oc2ccc(C(F)(F)F)cc2)CCCN(Cc2ccccc2C(F)(F)F)C1` (centres undefined), which IC50 is on record?
Answer: 14 µM

Question: Which IC50 does the source give for `CCCN1CCCC(Oc2ccc(C(F)(F)F)cc2)(C(=O)N2CCN(c3ccccn3)CC2)C1` (centres undefined) here?
Answer: 6.5 µM

Question: With `CC(C)(C)CCN1CCCC(Oc2ccc(C(F)(F)F)cc2)(C(=O)N2CCN(c3ccccn3)CC2)C1` (centres undefined) as the molecule, how does the IC50 read?
Answer: 6.9 µM

Question: For `O=C(N1CCN(c2ccccn2)CC1)C1(Oc2ccc(C(F)(F)F)cc2)CCCN(CC2CCCCC2)C1` (centres undefined), which IC50 is on record?
Answer: 5.1 µM

Question: With `CC(C)(C)CC(=O)N1CCCC(Oc2ccc(C(F)(F)F)cc2)(C(=O)N2CCN(c3ccccn3)CC2)C1` (centres undefined) as the molecule, how does the IC50 read?
Answer: 3 µM

Question: Which IC50 does the source give for `CC(C)(C)C(=O)N1CCCC(Oc2ccc(C(F)(F)F)cc2)(C(=O)N2CCN(c3ccccn3)CC2)C1` (centres undefined) here?
Answer: 22 µM

Question: For `O=C(N1CCN(c2ccccn2)CC1)C1(Oc2ccc(C(F)(F)F)cc2)CCCN(C(=O)C2(c3ccc(Cl)cc3)CC2)C1` (centres undefined), which IC50 is on record?
Answer: 1.9 µM

Question: With `O=C(N1CCN(c2ccccn2)CC1)C1(Oc2ccc(C(F)(F)F)cc2)CCCN(S(=O)(=O)c2ccccc2)C1` (centres undefined) as the molecule, how does the IC50 read?
Answer: 26 µM

Question: With `O=C(N1CCN(c2ccccn2)CC1)C1(Oc2ccc(C(F)(F)F)cc2)CCCN(S(=O)(=O)c2ccccc2C(F)(F)F)C1` (centres undefined) as the molecule, how does the IC50 read?
Answer: 41 µM

Question: Which IC50 does the source give for `O=C(N1CCN(c2ccccn2)CC1)C1(Oc2ccc(C(F)(F)F)cc2)CCCN(S(=O)(=O)c2ccccc2Cl)C1` (centres undefined) here?
Answer: 31 µM

Question: With `O=C(N1CCN(c2ccccn2)CC1)C1(Oc2ccc(C(F)(F)F)cc2)CCCN(S(=O)(=O)c2ccc(Cl)cc2)C1` (centres undefined) as the molecule, how does the IC50 read?
Answer: 50 µM

Question: With `CC(C)S(=O)(=O)N1CCCC(Oc2ccc(C(F)(F)F)cc2)(C(=O)N2CCN(c3ccccn3)CC2)C1` (centres undefined) as the molecule, how does the IC50 read?
Answer: 6.9 µM

Question: With `O=C(c1cnccc1C(F)(F)F)N1CCCC(Oc2ccccc2Cl)(C(=O)N2CCN(c3ccccn3)CC2)C1` (centres undefined) as the molecule, how does the IC50 read?
Answer: 21 µM

Target: T2, Cytochrome P450 2C9
Assay: Inhibition of CYP2C9 (unknown origin) compound preincubated with substrate
Type: ADME
Details: not given

Question: With `COCCOc1ccccc1N1CCN(C(=O)C2(Oc3ccc(C(F)(F)F)cc3)CCCN(C(=O)c3cnccc3C(F)(F)F)C2)CC1.Cl` (single isomer, unassigned) as the molecule, how does the IC50 read?
Answer: > 30 µM

System: not listed separately
Assay: Cmax in mouse at 20 mg/kg, po
Type: ADME, organism-based
Design: dose 20 mg/kg, route oral
Details: in vivo

Question: With `COCCOc1ccccc1N1CCN(C(=O)C2(Oc3ccc(C(F)(F)F)cc3)CCCN(C(=O)c3cnccc3C(F)(F)F)C2)CC1.Cl` (single isomer, unassigned) as the molecule, how does the Cmax read?
Answer: 700 nM
